The values that follow come from publication PMC7395068, “The evolution of strategies to minimise the risk of human drug-induced liver injury (DILI) in drug discovery and development” (Archives of Toxicology, 2020).

The conditions of series [1]: cited from earlier work.
The test system of series [2] is human hepatocytes. The note with it: cited from earlier work.
Series [3] concerns PHH spheroids. As to conditions: In vitro Assay; ref Vorrink 2018; cited from earlier work.
For series [4] the following is noted: cited from earlier work. The source holds these as a separate data set.
In series [5] the test system is rBsep. The note with it: cited from earlier work.
The subject of series [6] is HepaRG spheroids. Briefly: Combined HCI (HCS) and cellular ATP 3D assay in HepaRG spheroids. As to conditions: Homo sapiens, HepaRG.
Series [7] concerns hLiMTs. Briefly: Combined HCI (HCS) and cellular ATP 3D assay in hLiMTs. As to conditions: Homo sapiens.
Series [8] relates to HepG2 cells. As to conditions: In vitro Assay; ref O'Brien 2006; cited from earlier work.
Series [9] relates to HepG2 cells. The note with it: In vitro Assay; ref Persson 2013; cited from earlier work.
For series [10], the system named is PHH. The note with it: In vitro Assay; ref Proctor 2017; cited from earlier work.
In series [11] the test system is hLiMTs. The note with it: In vitro Assay; ref Proctor 2017; cited from earlier work.
Setting [12] is: In vitro Assay, ref Dawson 2012.

Each structure is given as a SMILES string. Read-outs that look alike come from different tables or passages of the source.

With `CCCSc1ccc2nc(NC(=O)OC)[nH]c2c1` [albendazole], in series [1] (ref Chen 2016), the “DILI +VE (5-8), DILI -VE (-4)” value was “+VE” and the DILI severity category entry is reported as “vMost-DILI-Concern”. Also, the “Structural based (HCI)” value in [2] is “+VE”. Moreover, the “hLiMTs ATP <20 x Cmax” value in [3] is “-VE”. In addition, the “In vivo DILI” value in series [4] (ref Vorrink 2018) is “+VE”. Moreover, the “In vivo DILI” value in series [4] (ref Xu 2008) is “+VE”.
Take `N=C(N)NC(=O)c1nc(Cl)c(N)nc1N` [amiloride]: in series [1] (in vivo), the “DILI +VE (5-8), DILI -VE (-4)” value is “+VE” and the DILI severity category entry is recorded as “vLess-DILI-Concern”. The “hLiMTs ATP <20 x Cmax” value in series [3] is “-VE”. Also, in [4] (in vivo), the “In vivo DILI” value is “-VE”.
Regarding `CCC1(c2ccc(N)cc2)CCC(=O)NC1=O` (stereo not shown) [aminoglutethimide], in series [2] (In vitro Assay, ref Xu 2008), the “Structural based (HCI)” value is given as “-VE”. Further, the “hLiMTs ATP <20 x Cmax” value in series [3] is on record as “-VE”. Further, the “In vivo DILI” value in series [4] (ref Vorrink 2018) and in series [4] (ref Xu 2008) was “-VE” throughout.
Consider `Clc1ccc2c(c1)C(N1CCNCC1)=Nc1ccccc1O2` [amoxapine], for which, in series [1] (ref Chen 2016), the “DILI +VE (5-8), DILI -VE (-4)” value is given as “-VE” and the DILI severity category entry is “Ambiguous DILI-concern”. For the same molecule, in series [2] (In vitro Assay, ref Xu 2008), the “Structural based (HCI)” value was “-VE”. In addition, the “hLiMTs ATP <20 x Cmax” value in series [3] is recorded as “-VE”. Also, in series [4] (ref Vorrink 2018), the “In vivo DILI” value is “-VE”. Also, the “In vivo DILI” value in [4] (ref Xu 2008) is listed as “-VE”.
For the molecule `Nc1cc(-c2ccncc2)c[nH]c1=O` [amrinone], in series [1] (ref Chen 2016), the “DILI +VE (5-8), DILI -VE (-4)” value was “-VE” and the DILI severity category result is “Ambiguous DILI-concern”. For the same molecule, the “Structural based (HCI)” value in series [2] (In vitro Assay, ref Xu 2008) is given as “-VE”. Moreover, the “hLiMTs ATP <20 x Cmax” value in series [3] was “-VE”. Besides, the “In vivo DILI” value in [4] (ref Vorrink 2018) is given as “+VE”. For the same molecule, the “In vivo DILI” value in [4] (ref Xu 2008) was “+VE”.
Regarding `CC(C)COCC(CN(Cc1ccccc1)c1ccccc1)N1CCCC1` (stereo not shown) [bepridil], the “Structural based (HCI)” value in series [2] (In vitro Assay, ref Xu 2008) is “+VE”. Moreover, in [3], the “hLiMTs ATP <20 x Cmax” value is recorded as “+VE (IC20 < 20 × Cmax.tot cut-off)”. Besides, the “In vivo DILI” value in series [4] (ref Vorrink 2018) and in [4] (ref Xu 2008) was “+VE” in each case.
Take `CN(C)CCC(c1ccc(Br)cc1)c1ccccn1` (stereo not shown) [brompheniramine]: the “Structural based (HCI)” value in series [2] (In vitro Assay, ref Xu 2008) is reported as “-VE”. The “hLiMTs ATP <20 x Cmax” value in series [3] was “-VE”.
In the case of `C[C@H](CCC(=O)O)[C@H]1CC[C@H]2[C@@H]3[C@H](O)C[C@@H]4C[C@H](O)CC[C@]4(C)[C@H]3CC[C@]12C` [chenodiol], in series [1] (ref Chen 2016), the “DILI +VE (5-8), DILI -VE (-4)” value is “-VE” and the DILI severity category result is recorded as “Ambiguous DILI-concern”. Further, the “Structural based (HCI)” value in [2] (In vitro Assay, ref Xu 2008) is “+VE”. Also, the “hLiMTs ATP <20 x Cmax” value in series [3] is given as “+VE (IC20 < 20 × Cmax.tot cut-off)”. Also, in series [4] (ref Vorrink 2018), the “In vivo DILI” value is “+VE”. In addition, in series [4] (ref Xu 2008), the “In vivo DILI” value is “+VE”.
Turning to `Cc1cc(C2CCCCC2)n(O)c(=O)c1` [ciclopirox], the “Structural based (HCI)” value in series [2] (In vitro Assay, ref Xu 2008) is on record as “-VE”. In addition, in series [3], the “hLiMTs ATP <20 x Cmax” value is reported as “-VE”. Further, the “In vivo DILI” value in series [4] (ref Vorrink 2018) and in [4] (ref Xu 2008) was “-VE” in each case.
As to `CCN(CC)C(=O)N1CCN(C)CC1` [diethylcarbamazine], the “Structural based (HCI)” value in series [2] (In vitro Assay, ref Xu 2008) is given as “-VE”. Also, the “hLiMTs ATP <20 x Cmax” value in [3] is given as “-VE”.
As to `COc1ccc([C@@H]2Sc3ccccc3N(CCN(C)C)C(=O)[C@@H]2OC(C)=O)cc1` [diltiazem], the “Structural based (HCI)” value in series [2] (In vitro Assay, ref Xu 2008) is recorded as “-VE”. Besides, the “hLiMTs ATP <20 x Cmax” value in series [3] is listed as “-VE”.
Consider `CC(CCc1ccc(O)cc1)NCCc1ccc(O)c(O)c1` (stereo not shown) [dobutamine], for which, in series [1] (ref Chen 2016), the “DILI +VE (5-8), DILI -VE (-4)” value is listed as “-VE” and the DILI severity category result is given as “vNo-DILI-Concern”. Further, the “Structural based (HCI)” value in series [2] (In vitro Assay, ref Xu 2008) is on record as “-VE”. The “hLiMTs ATP <20 x Cmax” value in series [3] was “-VE”. In addition, in [4] (ref Vorrink 2018), the “In vivo DILI” value is listed as “-VE”. Besides, in [4] (ref Xu 2008), the “In vivo DILI” value is “-VE”.
One may read the AC50 as the concentration giving half of the maximal activity seen. Turning to `COc1cc2c(cc1OC)C(=O)C(CC1CCN(Cc3ccccc3)CC1)C2` (stereo not shown) [donepezil], the “Inhibition of rBsep cutoff<3” value in [5] is reported as “-VE”. Further, the minimal effective concentration was 6.49 µM in series [6] (read-out: ATP endpoint MEC), 9.43 µM in [6] (read-out: HCS endpoint MEC), 3.17 µM in series [7] (read-out: ATP endpoint MEC) and 0.487 µM in [7] (read-out: HCS endpoint MEC). In addition, the AC50 in series [7] (read-out: ATP endpoint AC50) turned out to be 9.76 µM; in [7] (read-out: HCS endpoint AC50), 7.19 µM.
With `C[C@]12CCC(=O)C=C1CC[C@@H]1[C@@H]2[C@@H](O)C[C@@]2(C)[C@H]1CC[C@]2(O)C(=O)CO` [hydrocortisone], in series [1] (in vivo), the “DILI +VE (5-8), DILI -VE (-4)” value was “-VE” and the DILI severity category result was “vNo-DILI-Concern”. Further, the “Structural based (HCI)” value in [2] (In vitro Assay, ref Xu 2008) is “-VE”. Also, in series [3], the “hLiMTs ATP <20 x Cmax” value is listed as “-VE”. Also, the “In vivo DILI” value in series [4] (in vivo) is listed as “-VE”.
For `N[C@@H](Cc1ccc(O)c(O)c1)C(=O)O` [levodopa], the “Structural based (HCI)” value in [2] (In vitro Assay, ref Xu 2008) is “-VE”. In addition, the “hLiMTs ATP <20 x Cmax” value in [3] is “-VE”.
On to `NCCCC[C@H](N[C@@H](CCc1ccccc1)C(=O)O)C(=O)N1CCC[C@H]1C(=O)O` [lisinopril], for which, in series [2] (In vitro Assay, ref Xu 2008), the “Structural based (HCI)” value is recorded as “-VE”. Further, the “hLiMTs ATP <20 x Cmax” value in [3] was “+VE (IC20 < 20 × Cmax.tot cut-off)”.
For the molecule `Clc1ccc(COC(Cn2ccnc2)c2ccc(Cl)cc2Cl)c(Cl)c1` (stereo not shown) [miconazole], the “Structural based (HCI)” value in [2] (In vitro Assay, ref Xu 2008) is reported as “-VE”. Further, in [3], the “hLiMTs ATP <20 x Cmax” value is given as “-VE”.
`CCc1c(C)[nH]c2c1C(=O)C(CN1CCOCC1)CC2` (stereo not shown) [molindone]: in series [2] (In vitro Assay, ref Xu 2008), the “Structural based (HCI)” value is listed as “-VE”. In series [3], the “hLiMTs ATP <20 x Cmax” value is reported as “-VE”. Also, the “In vivo DILI” value in series [4] (ref Vorrink 2018) and in series [4] (ref Xu 2008) was “+VE” each time.
For the molecule `COc1ccc2cc([C@H](C)C(=O)O)ccc2c1` [naproxen], the “Structural based (HCI)” value in series [8] is given as “-VE”. In series [9], the Cluser analysis result is recorded as “-VE” and the “Structural based (HCI)” value was “-VE”. In addition, the “PHH ATP <100uM” value in [10] is recorded as “-VE”. Moreover, in series [11], the “hLiMTs ATP <100uM” value is on record as “-VE”.
Regarding `COC(=O)C1=C(C)NC(C)=C(C(=O)OC)C1c1ccccc1[N+](=O)[O-]` [nifedipine], in series [5], the “Inhibition of rBsep cutoff<3” value is “+VE”.
Regarding `COCCOC(=O)C1=C(C)NC(C)=C(C(=O)OC(C)C)C1c1cccc([N+](=O)[O-])c1` (stereo not shown) [nimodipine], the “Structural based (HCI)” value in series [2] (In vitro Assay, ref Xu 2008) is “+VE”. For the same molecule, the “hLiMTs ATP <20 x Cmax” value in series [3] is on record as “+VE (IC20 < 20 × Cmax.tot cut-off)”.
For the molecule `CC(C)NCC(O)COc1cccc2[nH]ccc12` (stereo not shown) [pindolol], in series [1] (ref Chen 2016), the “DILI +VE (5-8), DILI -VE (-4)” value is reported as “-VE” and the DILI severity category result was “vNo-DILI-Concern”. For the same molecule, the “hLiMTs ATP <20 x Cmax” value in [3] is “-VE”. Besides, the “In vivo DILI” value in [4] (ref Vorrink 2018) is “-VE”. For the same molecule, in [4] (ref Xu 2008), the “In vivo DILI” value was “-VE”.
Consider `O=C(C1CCCCC1)N1CC(=O)N2CCc3ccccc3C2C1` (stereo not shown) [praziquantel], for which, in [5] (setting [12]), the “Inhibition of rBsep cutoff<1& cmax u>.2” value is on record as “-VE” and the “Inhibition of rBsep cutoff<3” value is reported as “+VE”. Also, the “Structural based (HCI)” value in series [8] was “+VE”.
Take `CC(C)c1nc(N(C)S(C)(=O)=O)nc(-c2ccc(F)cc2)c1/C=C/[C@@H](O)C[C@@H](O)CC(=O)O` [rosuvastatin]: in [1] (ref Chen 2016), the “DILI +VE (5-8), DILI -VE (-4)” value is “+VE” and the DILI severity category entry is given as “vLess-DILI-Concern”. Also, the “Structural based (HCI)” value in series [8] is “+VE (lowest HCI endpoint IC50 (or in the absence of dose–response < 100 µM) < 30 × total human plasma exposure levels (Cmax.tot))”. The “In vivo DILI” value in series [4] (ref O'Brien 2006) is given as “+VE”. For the same molecule, the “In vivo DILI” value in series [4] (ref Proctor 2017) is “+VE”. Moreover, the “PHH ATP <100uM” value in series [10] is “+VE (IC50 threshold of 100 µM)”. The “hLiMTs ATP <100uM” value in series [11] is listed as “+VE (IC50 threshold of 100 µM)”.
On to `O=C(O)c1cc(/N=N/c2ccc(S(=O)(=O)Nc3ccccn3)cc2)ccc1O` [sulfasalazine], for which the “Structural based (HCI)” value in series [2] (In vitro Assay, ref Xu 2008) was “+VE”. For the same molecule, in [3], the “hLiMTs ATP <20 x Cmax” value is on record as “+VE (IC20 < 20 × Cmax.tot cut-off)”.
As to `CC(C)(C)c1ccc(C(O)CCCN2CCC(C(O)(c3ccccc3)c3ccccc3)CC2)cc1` (stereo not shown) [terfenadine], the “hLiMTs ATP <20 x Cmax” value in [3] is recorded as “-VE”.
